In the supplement of paper PMC5412046:

Each molecule was assayed on SB.msgc-1 (assay: AC50 for growth inhibition (viability) (log10 M); higher = less potent). Conditions: SB.msgc-1 (sporadic gastric cancer).
Procedure, shortened: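 Gastric cancer cells from hereditary or sporadic patients, 500 per 1536 well, were exposed to compound for 48 h over 11 threefold dilutions from a final 46 μM. CellTiter-Glo luminescence, read on a ViewLux, measured viability, which was normalised to DMSO. The log half-maximal activity concentration came from four-parameter fits, and only high-quality curve classes were kept.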

Going from `CO[C@H]1/C=C/O[C@@]2(C)Oc3c(C)c(O)c4c(c3C2=O)C2=NC3(CCN(CC(C)C)CC3)NC2=C(NC(=O)/C(C)=C\C=C\[C@H](C)[C@H](O)[C@@H](C)[C@@H](O)[C@@H](C)[C@H](OC(C)=O)[C@@H]1C)C4=O` [Rifabutin] to `CC[C@H]1/C=C\C=C/C[C@@H](C)[C@H](O)[C@@](C)(O)C(=O)[C@@H](C)[C@H](O)[C@@H](C)C(=O)[C@@H](C)[C@H](O)[C@@H](C)/C=C/C(=O)O[C@@H]2[C@H](C)[C@H](CC1)O[C@]1(CC[C@H](C)[C@H](C[C@@H](C)O)O1)[C@H]2C` [Oligomycin A], the “AC50 for growth inhibition (log10 M)” value falls from -4.63 to -8.83.

`CCC[S+](=O)([O-])Nc1ccc(F)c(C(=O)c2c[nH]c3ncc(Cl)cc23)c1F` [PLX-4720] and `CCC[S+](=O)([O-])Nc1ccc(F)c(C(=O)c2c[nH]c3ncc(-c4ccc(Cl)cc4)cc23)c1F` [Vemurafenib] are within 0.2 log units of each other in “AC50 for growth inhibition (log10 M)” value: -4.83 for the first, -4.78 for the second.

Compared with `CCNC(=O)C[C@H]1/N=C(/C2=CC=C(Cl)C=C2)C3=CC(=CC=C3[N]4C(=NN=C14)C)OC`, `Clc1ccc(-c2nc3sccn3c2/C=N/OCc2ccc(Cl)c(Cl)c2)cc1` [CITCO] is higher in “AC50 for growth inhibition (log10 M)” value: -5.03 for the first, -4.73 for the second.

Compared with `COCCCN1CCC(NC(=O)c2cc(Cl)c(N)c3c2OCC3)CC1` [Prucalopride], `CCc1c(O)cc(O)c(C(=O)c2ccc(OCCN3CCOCC3)c(OC)c2)c1CC(=O)N(CCOC)CCOC` [KW-2478] is lower in “AC50 for growth inhibition (log10 M)” value: -4.58 for the first, -6.58 for the second.

First: CC(C)n1c(/C=C/[C@H](O)C[C@H](O)CC(=O)[O-])c(-c2ccc(F)cc2)c2ccccc21 [Fluvastatin]
Second: C[S+](=O)([O-])N(Cc1ccco1)CC(O)Cn1c2ccccc2c2ccccc21 (stereo unspecified) [KL001]
The “AC50 for growth inhibition (log10 M)” value of the first is lower: -5.38 for the first, -4.68 for the second.

Going from `O=C(NOCC(O)CO)c1cc(Br)c(F)c(F)c1Nc1ccc(I)cc1F` (stereo unspecified) to `Cn1cnc2c(F)c(Nc3ccc(Br)cc3F)c(C(=O)NOCCO)cc21` [ARRY-162], the “AC50 for growth inhibition (log10 M)” value falls from -5.88 to -6.63.

Going from `C[S+]([O-])c1ccc(-c2nc(-c3ccc(F)cc3)c(-c3ccncc3)[nH]2)cc1` (stereo unspecified) to `Cc1ccc(C(N)=O)cc1Nc1nccc(-c2cn(C(C)C)c3cnccc23)n1`, the “AC50 for growth inhibition (log10 M)” value falls from -4.62 to -5.28.

`CCOC(=O)Nc1ccc(NCc2ccc(F)cc2)cc1N` [Retigabine] and `CCC[S+]([O-])c1ccc2[nH]c(NC(=O)OC)nc2c1` (stereo unspecified) [Albendazole Oxide] are within 0.2 log units of each other in “AC50 for growth inhibition (log10 M)” value: -4.83 for the first, -4.68 for the second.

`C[S+](=O)([O-])c1ccc(C(=O)Nc2ccc(Cl)c(-c3ccccn3)c2)c(Cl)c1` [Vismodegib] and `O=C(Nc1cccc(Br)c1)c1cccc([S+](=O)([O-])N2CCCCCC2)c1` [Ak-7] are within 0.2 log units of each other in “AC50 for growth inhibition (log10 M)” value: -4.78 for the first, -4.73 for the second.

Going from `Cc1nc(Nc2ncc(C(=O)Nc3c(C)cccc3Cl)s2)cc(N2CCN(CCO)CC2)n1` [Dasatinib] to `COc1cc(N2CCN(C)CC2)ccc1Nc1nc(N)c(C(=O)c2c(Cl)cccc2Cl)s1`, the “AC50 for growth inhibition (log10 M)” value rises from -5.73 to -5.18.

Going from `Cc1nnc(N[S+](=O)([O-])c2ccc(N)cc2)s1` [Sulfamethizole] to `Cc1ccc(Nc2nccc(N(C)c3ccc4c(C)n(C)nc4c3)n2)cc1[S+](N)(=O)[O-]` [Pazopanib], the “AC50 for growth inhibition (log10 M)” value rises from -5.43 to -4.78.

`COc1cc(C)c(/C=C/C(C)=C/C=C/C(C)=C/C(=O)O)c(C)c1C` [Acitretin] and `Cc1cc2c(C(C)C)c(O)c(O)c(C=O)c2c(O)c1-c1c(C)cc2c(C(C)C)c(O)c(O)c(C=O)c2c1O` [(-)-Gossypol] are within 0.2 log units of each other in “AC50 for growth inhibition (log10 M)” value: -4.73 for the first, -4.83 for the second.

Compared with `Cc1cc(SCc2sc(-c3ccc(C(F)(F)F)c(F)c3)nc2C)ccc1OCC(=O)O` [GW-0742], `COCC(=O)NC/C=C/c1ccc2ncnc(Nc3ccc(Oc4ccc(C)nc4)c(C)c3)c2c1` is lower in “AC50 for growth inhibition (log10 M)” value: -4.78 for the first, -6.58 for the second.

`C[C@]12CC[C@H]3[C@@H](CC(=C)\C4=C\C(=O)\C=C/[C@]34C)[C@@H]1CCC2=O` [Exemestane] and `CCCC1OC2C[C@H]3[C@@H]4CCC5=CC(=O)C=C[C@]5(C)[C@H]4C(O)C[C@]3(C)[C@]2(C(=O)CO)O1` (stereo partly specified) [Budesonide] are within 0.2 log units of each other in “AC50 for growth inhibition (log10 M)” value: -4.83 for the first, -4.68 for the second.

Going from `CC(C)(C)c1cc(C(=O)O)c(NC(=O)Nc2ccc3[nH]ncc3c2)s1` [S6K-18] to `COC(=O)Nc1nc2cc(C(=O)c3cccs3)ccc2[nH]1` [Nocodazole], the “AC50 for growth inhibition (log10 M)” value falls from -4.88 to -7.98.

`COc1cccc(OC)c1-c1cc(C(=O)NC2(C(=O)O)C3CC4CC(C3)CC2C4)nn1-c1ccnc2cc(Cl)ccc12` (stereo unspecified) [Meclinertant] and `COc1ccc(COc2cc3oc(=O)c4cc(C(C)O)ccc4c3cc2OC)cc1` (stereo unspecified) are within 0.2 log units of each other in “AC50 for growth inhibition (log10 M)” value: -4.68 for the first, -4.63 for the second.

First: COc1ccc(C(=O)c2c(C)n(CCN3CCOCC3)c3cc(I)ccc23)cc1 [AM-630]
Second: COC(=O)Nc1ccc(-c2nc(N3CCOCC3)c3cnn(C4CCN(C(=O)OC)CC4)c3n2)cc1 [WYE-354]
The “AC50 for growth inhibition (log10 M)” value of the first is higher: -4.63 for the first, -6.03 for the second.

`O=C1NC(=O)/C(=C/c2ccc3c(c2)OC(F)(F)O3)S1` and `O=C1Nc2ccc(I)cc2/C1=C/c1cc(Br)c(O)c(Br)c1` [GW-5074] are within 0.2 log units of each other in “AC50 for growth inhibition (log10 M)” value: -4.83 for the first, -4.93 for the second.

First: CN(C)CCN(Cc1ccc(Cl)cc1)c1ccccn1.Cl [Halopyramine]
Second: COc1ccc2c(c1)CC[C@@H](CN(C)CC(=O)O)[C@H]2c1ccccc1
The “AC50 for growth inhibition (log10 M)” value of the first is higher: -4.68 for the first, -5.63 for the second.

Going from `CCCCCCCN(CC)CCCC(O)c1ccc(NS(C)(=O)=O)cc1.CCCCCCCN(CC)CCCC(O)c1ccc(NS(C)(=O)=O)cc1.O=C(O)/C=C/C(=O)O` (stereo unspecified) [Ibutilide fumarate] to `CCCCCCCCCCCCCC(=O)N[C@H](CO)[C@H](O)c1ccc([N+](=O)[O-])cc1` [D-NMAPPD], the “AC50 for growth inhibition (log10 M)” value falls from -4.68 to -4.93.

`COC1=CC=CC(=C1N)\C2=C\C(=O)C3=C(O2)C=CC=C3` and `COc1ccc2c(c1)CN(C)CC2c1ccc(Cl)c(Cl)c1` (stereo unspecified) [Diclofensine] are within 0.2 log units of each other in “AC50 for growth inhibition (log10 M)” value: -4.68 for the first, -4.73 for the second.

Compared with `CC(C)(C)c1cnc(CSc2cnc(NC(=O)C3CCNCC3)s2)o1` [SNS-032], `Cc1c(CN2CCN([S+](C)(=O)[O-])CC2)sc2c(N3CCOCC3)nc(-c3cnc(N)nc3)nc12` [GNE-477] is lower in “AC50 for growth inhibition (log10 M)” value: -7.18 for the first, -7.68 for the second.

Compared with `C/C=C(/C(=C/C)c1ccc(O)cc1)c1ccc(O)cc1` [Dienestrol], `CCCCCCCCOc1ccccc1C(=O)Nc1ccc(C(=O)OCC[N+](C)(CC)CC)cc1` [Octylonium bromide] is higher in “AC50 for growth inhibition (log10 M)” value: -5.08 for the first, -4.68 for the second.

Going from `COC(=O)CCC1=C(C)C2=CC3=NC(=CC4=C(C)C(=C([NH]4)C=C\5N=C(C=C1[NH]2)\C(=C5C)CCC(O)=O)C=C)\C6=C\C=C(/[C@@H](C(=O)OC)[C@@]36C)C(=O)OC` [Verteporfin] to `CCCn1c(=O)c2[nH]c(-c3cnn(Cc4cccc(C(F)(F)F)c4)c3)nc2n(CC)c1=O` [CVT-6883], the “AC50 for growth inhibition (log10 M)” value rises from -7.03 to -4.68.

First: Nc1nc2ccc(OC(F)(F)F)cc2s1 [Riluzole]
Second: CCc1cncnc1N1CCN(Cc2nc3cc(C(F)(F)F)ccc3[nH]2)CC1
The “AC50 for growth inhibition (log10 M)” value of the first is higher: -4.73 for the first, -5.13 for the second.

First: O=[S+]([O-])(/N=C/c1c(O)ccc2ccccc12)c1cccs1
Second: c1ccc(CNc2nc(N3CCOc4ccccc43)nc3c2CCCC3)cc1
The “AC50 for growth inhibition (log10 M)” value of the first is lower: -5.03 for the first, -4.68 for the second.

First: C[C@@H]1C/C=C/C=C/C=C/C=C/[C@@H](O[C@@H]2O[C@H](C)[C@@H](O)[C@H](N)[C@@H]2O)C[C@@H]2O[C@](O)(C[C@@H](O)C[C@@H]3O[C@H]3/C=C/C(=O)O1)C[C@H](O)[C@H]2C(=O)O [Natamycin]
Second: CO[C@H]1O[C@@H]2O[C@@]3(C)CC[C@H]4[C@H](C)CC[C@@H]([C@H]1C)[C@@]24OO3 [Artemether]
The “AC50 for growth inhibition (log10 M)” value of the first is higher: -5.23 for the first, -5.98 for the second.

`NC(=O)N/N=C/c1ccc([N+](=O)[O-])o1` [Nitrofurazone] and `N=C(N)NC(=N)N1CCOCC1` [Moroxydine] are within 0.2 log units of each other in “AC50 for growth inhibition (log10 M)” value: -4.68 for the first, -4.78 for the second.

`C[N]1C=C(C=N1)C2=CC=C3N=CC\4=C(N(C(=O)\C=C4)C5=CC6=C(CCN6C(=O)C=C)C=C5)C3=C2` and `CC(=O)N1CCN(c2ccc(OC[C@H]3CO[C@](Cn4ccnc4)(c4ccc(Cl)cc4Cl)O3)cc2)CC1` [Ketoconazole] are within 0.2 log units of each other in “AC50 for growth inhibition (log10 M)” value: -4.98 for the first, -4.83 for the second.

First: N#C[C@@H]1C[C@@H]2C[C@@H]2N1C(=O)[C@@H](N)C12CC3CC(CC(O)(C3)C1)C2 [Saxagliptin]
Second: COc1cc(OC2CCN(C)CC2)ccc1Nc1ncc2c(n1)n(C1CCCC1)c(=O)n2C [AZ-3146]
The “AC50 for growth inhibition (log10 M)” value of the first is lower: -4.98 for the first, -4.78 for the second.

With `O=NN(CCCl)C(=O)NC1CCCCC1` [Lomustine] the “AC50 for growth inhibition (log10 M)” value was -4.83.
